Data reported in patent EP4722203A1, “3,4-DIHYDROPHTHALAZIN-1(2H)-ONE DERIVATIVE, AND PREPARATION METHOD THEREFOR AND USE THEREOF” (Academy of Military Medical Sciences, priority 2023, dated 2024).

Assays:
[1] = system: MV-4-11 cells; assay: Antiproliferative activity, CCK-8 assay; type: cell-based; conditions: Homo sapiens, MV4-11; 144 hours incubation, CCK-8, absorbance at 450 nm
Experimental: (§1) The cell models used in this example were human hematologic tumor cells, including NCI-H929, RPMI-8226, MV-4-11, U937 and WSU-DLCL-2. Some of the compounds of the present invention were selected to determine their inhibitory activity against the proliferation of NCI-H929, RPMI-8226, MV-4-11, U937, and WSU-DLCL-2 cells.
(§2) • ① The selected compounds were dissolved in DMSO to prepare 10 mM stock solutions. Compounds used within three months should be stored at room temperature in a desiccator; others could be stored at -20°C for long-term storage. • ② The above stock solutions and the positive reference compound pomalidomide were diluted with DMSO. Their initial concentrations were 10 µM. In the experiments of NCI-H929 and RPMI-8226 cells, 3-fold serial dilution with 11 concentration points was performed, with the lowest concentration of 0.00047 µM. The resulting solutions were shaken on a shaker for 5 minutes.
(§3) • ① The NCI-H929, RPMI-8226, MV-4-11, U937, and WSU-DLCL-2 cells in logarithmic growth phase were inoculated in a 96-well plate, 20,000 to 30,000 cells per well, and the plate was pre-cultured for 24 hours in an incubator (at 37°C and 5% CO2). • ② The culture medium in the plate was replaced, and the compounds and the positive control with corresponding concentrations were added to the plated at a volume of 50 µl. • ③ The plate was incubated for 144 hours in an incubator, then 15 µl of CCK-8 solution was added to each well, and incubated in the incubator for another 1-4 hours. • ④ The absorbance at 450 nm was measured using a microplate reader.
(§4) • ① Calculating % Inhibition: [formula] • ② Calculating IC50 value of compound and plotting dose-response curve: The IC50 value was calculated by fitting the % Inhibition and the logarithm of compound concentration to a nonlinear regression (dose response-variable slope) by using GraphPad 6.0. • Y = Bottom + (Top - Bottom) / (1 + 10^((LogIC50 - X) * HillSlope)) • X: log of inhibitor concentration; Y: % Inhibition.
(§5) After calculating % Inhibition, a dose-response curve was plotted with the logarithm of the test compound concentration as the x-axis and the average cell viability as the y-axis, and the IC50 value was obtained by fitting.

[2] = system: U937 cells; assay: Antiproliferative activity, CCK-8 assay; type: cell-based; conditions: Homo sapiens, U-937; 144 hours incubation, CCK-8, absorbance at 450 nm
Experimental: as §1, §2, §3, §4, §5

[3] = system: NCI-H929 cells; assay: Antiproliferative activity, CCK-8 assay; type: cell-based; conditions: Homo sapiens, 144 hours incubation, CCK-8, absorbance at 450 nm, read-out: IC50 (µM) H-929
Experimental: as §1, §2, §3, §4, §5

[4] = system: WSU-DLCL-2 cells; assay: Antiproliferative activity, CCK-8 assay; type: cell-based; conditions: Homo sapiens, WSUDLCL2; 144 hours incubation, CCK-8, absorbance at 450 nm
Experimental: as §1, §2, §3, §4, §5

[5] = system: RPMI-8226 cells; assay: Antiproliferative activity, CCK-8 assay; type: cell-based; conditions: Homo sapiens, 144 hours incubation, CCK-8, absorbance at 450 nm
Experimental: as §1, §2, §3, §4, §5

[6] = system: human multiple myeloma NCI-H929 xenograft tumors; assay: In vivo activity in combination with dexamethasone against NCI-H929 transplanted tumor; set-up: species or system NOD/SCID mice; conditions: each drug 3 mg/kg, QD, oral gavage, alone or combined
Experimental: In this example, human multiple myeloma NCI-H929 cell line was selected as the cell model to determine the inhibitory effects of compound and dexamethasone alone, as well as combination thereof on the growth of NOD/SCID mouse transplanted tumors of NCI-H929 tumor cells. The evaluation methods and results are described below.
(§6) Human multiple myeloma NCI-H929 cells were routinely cultured in RPMI1640 containing 10% fetal bovine serum at 37°C in a 5% CO2 incubator. After three passages in vitro, when the cells reached over 80% confluence and the required confluence rate, the cells were digested and harvested. After washing with PBS, the cells were counted and the cell concentration was adjusted to approximately 5 × 10^7 cells/mL. The cells were then placed in 4 mL centrifuge tubes on ice for later use.
(§7) Female NOD/SCID mice aged 4-5 weeks were selected and subcutaneously inoculated with NCI-H929 cells ectopically. The mice were held in a lateral position, the forelimb axilla was disinfected with 75% alcohol, and 100 µL of the cell suspension was injected subcutaneously into the axilla using a 1 mL syringe ([…]/100 µL).
After the tumors grew to 90-150 mm^3, the animals were randomly divided into groups, 8 mice in each group, and administered according to different administration methods as follows: • Model control group: Administered with the same volume of Vehicle (DMSO: 0.5% sodium carboxymethyl cellulose: distilled water = 1:1:8) daily by gavage; • Test group 1: administered with dexamethasone (Dex) solution at 3 mg/kg (mouse body weight) daily by gavage; • Test group 2: administered with I-4 solution at 3 mg/kg (mouse body weight) daily by gavage; • Test group 3: administered with I-8 solution at 3 mg/kg (mouse body weight) daily by gavage; • Test group 4: administered with dexamethasone at 3 mg/kg (mouse body weight) and 1-4 solution at 3 mg/kg (mouse body weight) daily by gavage; • Test group 5: administered with dexamethasone at 3 mg/kg (mouse body weight) and I-8 solution at 3 mg/kg (mouse body weight) daily by gavage;
(§8) The route of administration was oral gavage, and the administration frequency was once daily, for 10 consecutive days. The first day of administration was defined as Day 1 of the experiment. Tumor volume changes in mice were measured and recorded every two days. Tumor volume was measured using a vernier caliper, in which the major axis (a) and minor axis (b) of the tumor were measured, and the tumor volume was calculated as tumor volume V (mm^3) = a x b^2/2. After the experiment, the mice were dissected and the tumor weight was measured. The data were entered and statistically analyzed using GraphPad Prism 6 software. The data are expressed as mean ± SEM (Standard Error of Mean), and one-way ANOVA was used. P ≤ 0.05 was considered statistically significant.

[7] = system: human multiple myeloma NCI-H929 xenograft tumors; assay: In vivo antitumor activity against NCI-H929 transplanted tumors; set-up: species or system NOD/SCID mice; conditions: QD; for Tumor inhibition rate TGI (%) / Average volume (mm^3) (Day 10) / Initial volume (mm^3): oral gavage; for Tumor inhibition rate TGI (%): 10 consecutive days; for Initial volume (mm^3): baseline
Experimental: In this example, the human multiple myeloma NCI-H929 cell line was used as the cell model. The inhibitory effects of compounds on the growth of NOD/SCID mouse transplanted tumors of NCI-H929 tumor cells were determined. The evaluation methods and results are described below.
as §6, §7
After the tumors grew to 90-150 mm^3, the animals were randomly divided into groups, 8 mice in each group, and administered according to different administration methods as follows: • Model control group: Administered with the same volume of Vehicle (DMSO: 0.5% sodium carboxymethyl cellulose: distilled water = 1:1:8) daily by gavage; • Control drug group 1: administered with pomalidomide solution at 10 mg/kg (mouse body weight) daily by gavage; • Control drug group 2: administered with CC-220 solution at 3 mg/kg (mouse body weight) daily by gavage; • Control drug group 3: administered with CC-220 solution at 10 mg/kg (mouse body weight) daily by gavage; • Experimental compound group 4: administered with compound I-4 solution at 3 mg/kg (mouse body weight) daily by gavage; • Experimental compound group 5: administered with compound I-4 solution at 10 mg/kg (mouse body weight) daily by gavage; • Experimental compound group 6: administered with compound I-8 solution at 3 mg/kg (mouse body weight) daily by gavage; • Experimental compound group 7: administered with compound I-8 solution at 10 mg/kg (mouse body weight) daily by gavage;
as §8

[8] = system: human multiple myeloma NCI-H929 xenograft tumors; assay: In vivo activity of combination therapy with bortezomib or tazemetostat against NCI-H929 transplanted tumor; set-up: species or system NOD/SCID mice; conditions: I-8 3 mg/kg QD; for Average volume (mm^3) (Day 10) / Tumor inhibition rate TGI (%) / Initial volume (mm^3): Bort 1 mg/kg BIW, Taze 100 mg/kg QD, combinations given as + Bort 3 mg/kg BIW / + Taze 3 mg/kg QD; for Initial volume (mm^3): baseline
Experimental: In this example, the human multiple myeloma NCI-H929 cell line was selected as the cell model to determine the inhibitory effects of compounds, bortezomib (Bort), and tazemetostat (Taze), as single drugs and in combination, on the growth of NOD/SCID mouse transplanted tumors of NCI-H929 tumor cells. The evaluation methods and results are described below.
as §6, §7
After the tumors grew to 90-150 mm^3, the animals were randomly divided into groups, 8 mice in each group, and administered according to different administration methods as follows: • Model control group: Administered with the same volume of Vehicle (DMSO: 0.5% sodium carboxymethyl cellulose: distilled water = 1:1:8) daily by gavage; • Test group 1: administered with I-8 solution at 3 mg/kg (mouse body weight) daily by gavage; • Test group 2: administered with bortezomib (Bort) solution at 1 mg/kg (mouse body weight) twice weekly by gavage; • Test group 3: administered with tazemetostat solution at 100 mg/kg (mouse body weight) daily by gavage; • Test group 4: administered with I-8 at 3 mg/kg (mouse body weight) daily by gavage and bortezomib (Bort) solution at 1 mg/kg (mouse body weight) twice weekly by gavage; • Test group 5: administered with I-8 at 3 mg/kg (mouse body weight) daily by gavage and tazemetostat (Taze) solution at 100 mg/kg (mouse body weight) daily by gavage;
as §8

| Compound | IC50 [1] [µM] | IC50 [2] [µM] | IC50 [3] [µM] | IC50 [5] [µM] | IC50 [4] [µM] | also measured |
| --- | --- | --- | --- | --- | --- | --- |
| C[C@@H]1C[C@H]2[C@@H]3CCC4=CC(=O)C=C[C@]4(C)[C@@]3(F)[C@@H](O)C[C@]2(C)[C@@]1(O)C(=O)CO [Dex, dexamethasone, reference compound] | – | – | – | – | – | Tumor inhibition rate TGI (%) ([6]; 10 consecutive days): 45.48%; Average volume (mm^3) (Day 10) ([6]; Day 10): 1048.6 mm^3; Initial volume (mm^3) ([6]; baseline): 185.7 mm^3 |
| O=C1CC[C@H](N2Cc3c(OCc4ccc(CN5CCOCC5)cc4)cccc3C2=O)C(=O)N1 [CC-220, reference compound] | – | – | – | – | – | Tumor inhibition rate TGI (%) ([7]; 3 mg/kg): 77.98%; Average volume (mm^3) (Day 10) ([7]; 3 mg/kg): 643.1 mm^3; Initial volume (mm^3) ([7]; 3 mg/kg): 214.6 mm^3; Tumor inhibition rate TGI (%) ([7]; 10 mg/kg): 100.09%; Average volume (mm^3) (Day 10) ([7]; 10 mg/kg): 205.5 mm^3; Initial volume (mm^3) ([7]; 10 mg/kg): 207.2 mm^3; body weight ([7]; 10 mg/kg, during the experiment, Figure 2B): decreasing trend in body weight |
| CCN(c1cc(-c2ccc(CN3CCOCC3)cc2)cc(C(=O)NCc2c(C)cc(C)[nH]c2=O)c1C)C1CCOCC1 [Taze, tazemetostat] | – | – | – | – | – | Average volume (mm^3) (Day 10) [8]: 1558.0 mm^3; Tumor inhibition rate TGI (%) [8]: 12.83%; Initial volume (mm^3) [8]: 110.8 mm^3 |
| CC(C)C[C@H](NC(=O)[C@H](Cc1ccccc1)NC(=O)c1cnccn1)B(O)O [Bort, bortezomib] | – | – | – | – | – | Average volume (mm^3) (Day 10) [8]: 1249.7 mm^3; Tumor inhibition rate TGI (%) [8]: 30.78%; growth of NCI-H929 transplanted tumors (in words) ([8]; bortezomib 1 mg/kg BIW, tazemetostat 100 mg/kg QD, alone or combined): weaker tumor-inhibiting abilities; Initial volume (mm^3) [8]: 100.6 mm^3 |

Continued, in another order:

| IC50 [1] [µM] | IC50 [2] [µM] | IC50 [3] [µM] | IC50 [5] [µM] | Compound | IC50 [4] [µM] | also measured |
| --- | --- | --- | --- | --- | --- | --- |
| 0.39 | > 10 | > 10 | 0.457 | CN1Cc2c(cccc2[N+](=O)[O-])C(=O)N1C1CCC(=O)NC1=O (centres unmarked) [I-9, 3-(3-methyl-5-nitro-1-oxo-3,4-dihydrophthalazin-2(1H)-yl)piperidin-2,6-dione] | 0.23 | – |
| 0.874 | 2.3 | > 10 | 0.499 | CN1Cc2c(N)cc(F)cc2C(=O)N1C1CCC(=O)NC1=O (centres unmarked) [I-12, 3-(5-amino-7-fluoro-3-methyl-1-oxo-3,4-dihydrophthalazin-2(1H)-yl)piperidin-2,6-dione] | 3.69 | – |
| 3.43 | 1.32 | – | – | CN1Cc2c(NCc3ccc(CN4CCOCC4)cc3)cccc2C(=O)N1C1CCC(=O)NC1=O (centres unmarked) [I-1, 3-(3-methyl-5-((4-(morpholinomethyl)benzyl)amino)-1-oxo-3,4-dihydrophthalazin-2(1H)-yl)piperidin-2,6-dione] | 0.358 | – |
| 0.0155 | 0.0348 | 0.028 | 0.442 | CN1Cc2c(NCc3ccc(CN4CCN(c5ccc(C#N)cc5)CC4)cc3)cccc2C(=O)N1C1CCC(=O)NC1=O (centres unmarked) [I-7] | 0.053 | – |
| > 10 | 1.11 | 0.85 | 0.204 | CN1Cc2c(cc(F)cc2[N+](=O)[O-])C(=O)N1C1CCC(=O)NC1=O (centres unmarked) [I-13, 3-(7-fluoro-3-methyl-5-nitro-1-oxo-3,4-dihydrophthalazin-2(1H)-yl)piperidin-2,6-dione] | 0.88 | – |
| 1.39 | 1.11 | 1.3 | – | CN1Cc2c(NCc3ccc(CN4CCN(c5ccccc5)CC4)cc3)cccc2C(=O)N1C1CCC(=O)NC1=O (centres unmarked) [I-3, 3-(3-methyl-1-oxo-5-((4-((4-phenylpiperazin-1-yl)methyl)benzyl)amino)-3,4-dihydrophthalazin-2(1H)-yl)piperidin-2,6-dione] | 0.279 | – |
